Source: paper PMC8958504 (Journal of Medicinal Chemistry, 2022)

Legend:
hMAO-A = biological target: T1, hMAO-A (Homo sapiens, UniProt P21397); assay: biochemical; conditions: read-out: hMAO-A (IC50); recombinant hMAO-A, p-tyramine substrate
T1 sequence (P21397 1-527): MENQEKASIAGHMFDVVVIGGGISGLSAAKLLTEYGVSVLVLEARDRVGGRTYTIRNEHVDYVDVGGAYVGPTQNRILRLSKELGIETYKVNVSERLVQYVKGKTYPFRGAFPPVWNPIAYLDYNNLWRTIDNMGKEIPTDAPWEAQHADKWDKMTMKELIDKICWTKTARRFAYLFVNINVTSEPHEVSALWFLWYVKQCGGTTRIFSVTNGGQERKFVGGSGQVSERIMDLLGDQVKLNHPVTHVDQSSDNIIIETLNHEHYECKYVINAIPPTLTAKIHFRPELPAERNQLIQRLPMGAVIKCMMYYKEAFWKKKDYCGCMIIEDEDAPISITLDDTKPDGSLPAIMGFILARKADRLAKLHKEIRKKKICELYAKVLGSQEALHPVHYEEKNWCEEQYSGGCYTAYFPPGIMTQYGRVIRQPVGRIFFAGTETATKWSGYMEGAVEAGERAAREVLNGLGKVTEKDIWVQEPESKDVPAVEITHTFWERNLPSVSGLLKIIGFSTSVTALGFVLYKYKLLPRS
Method: (§1) The hMAO-A/B inhibition of all compounds was determined using the Amplex Red MAO assay kit.
(§2) Assays were performed following the general procedure previously described.[98] […] The specific fluorescence emission was calculated after subtracting the background activity, which was determined from wells containing all components except the hMAO isoforms, which were replaced with PBS.

hMAO-B = biological target: T2, hMAO-B (Homo sapiens, UniProt P27338); assay: biochemical; conditions: for IC50: read-out: hMAO-B (IC50), recombinant hMAO-B, p-tyramine substrate; for inhibition at 50 µM: read-out: hMAO-B percentage of inhibition (in brackets)
T2 sequence (P27338 1-520): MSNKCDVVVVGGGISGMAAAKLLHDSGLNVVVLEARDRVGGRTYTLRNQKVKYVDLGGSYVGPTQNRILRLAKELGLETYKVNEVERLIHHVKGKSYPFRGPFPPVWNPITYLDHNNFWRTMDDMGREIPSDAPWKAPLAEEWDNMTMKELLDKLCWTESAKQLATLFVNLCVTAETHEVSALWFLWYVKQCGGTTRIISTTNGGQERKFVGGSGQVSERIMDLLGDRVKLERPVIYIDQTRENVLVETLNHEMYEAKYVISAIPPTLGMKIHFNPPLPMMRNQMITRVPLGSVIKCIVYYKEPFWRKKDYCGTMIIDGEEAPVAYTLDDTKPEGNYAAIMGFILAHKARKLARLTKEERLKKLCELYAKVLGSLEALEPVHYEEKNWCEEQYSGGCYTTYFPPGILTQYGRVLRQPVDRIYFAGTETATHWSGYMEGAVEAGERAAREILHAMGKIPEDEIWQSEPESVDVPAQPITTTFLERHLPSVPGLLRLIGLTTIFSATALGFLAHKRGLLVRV
Method: as §1, §2

[1] = test system: NRF2-ARE signaling pathway; assay: cells; format: cell-based; conditions: for EC (2-fold induction): Arec32, 24 h, read-out: NRF2 (CD, μM), concentration required to double luciferase activity, AREc32 cells, 24 h; for NRF2 (CD, μM): concentration required to double luciferase activity, AREc32 cells, 24 h
Method: AREc32 cells were plated in 96-well white plates (2 × 10^4 cells/well). […]. The AREc32 cells constitutively express the plasmid pGL-8xARE that implements eight copies of the EpRE sequences, followed by the luciferase reporter gene. Therefore, NRF2 induction is related to the activation of EpRE sequences, expressing luciferase at the same extent as EpRE sequences are activated. The Luciferase Assay System (Promega E1500) was used according to the provider’s protocol, and luminescence was quantified in an Orion II microplate luminometer (Berthold, Germany). Fold induction of luciferase activity was normalized to basal conditions. Data are expressed as CD values, expressing the concentration required to double the luciferase activity. CD values were calculated from dose–response curves generated from the fold induction of control conditions versus inducer concentration and fitted by nonlinear regression and data interpolated to twofold induction concentration.[68]

[2] = Oxygen radical absorbance capacity (ORAC-FL) assay; conditions: trolox = 1.0
Method: 2,2′-Azobis-(amidinopropane) dihydrochloride (AAPH), trolox, and fluorescein (FL) were purchased from Sigma-Aldrich. The reaction was carried out in a 75 mM phosphate buffer (pH 7.4), and the final reaction mixture was 200 μL. […] Antioxidant curves (fluorescence vs time) were first normalized to the curve of the blank corresponding to the same assay, and the area under the curve (AUC) of fluorescence decay was calculated. The net AUC corresponding to a sample was calculated by subtracting the AUC corresponding to the blank. Regression equations between the net AUC and antioxidant concentration were calculated for all the samples.

in vitro = in vitro ADME; conditions: for Papp at 240 min, 100 μg mL^–1: PAMPA, pH 7.4, class from PAMPA-BBB Pe, read-out: CNS-permeability prediction; for PAMPA-BBB (Pe, 10^–6 cm s^–1): porcine brain lipid, PBS/EtOH (70:30), 240 min, 25 °C
QR2 = biological target: T3, QR2 (Mesocricetus auratus, UniProt A0ABM2YAB8); assay: biochemical
T3 sequence (A0ABM2YAB8 1-231): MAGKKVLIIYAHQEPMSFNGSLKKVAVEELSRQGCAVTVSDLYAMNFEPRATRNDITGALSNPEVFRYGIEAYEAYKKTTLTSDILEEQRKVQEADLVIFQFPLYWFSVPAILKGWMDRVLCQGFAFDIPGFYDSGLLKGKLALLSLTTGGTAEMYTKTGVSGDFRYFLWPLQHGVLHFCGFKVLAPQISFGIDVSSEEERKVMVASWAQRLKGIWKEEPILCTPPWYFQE
Method: The QR2 experiments were performed in membrane homogenates of hamster brains (https://www.eurofins.fr, catalog ref. 0088). […] First, radioligand displacement was measured at a fixed compound concentration (10 μM) in each receptor.

Row | Structure (SMILES) | IC50 (hMAO-A) [µM] | IC50 (hMAO-B) [µM] | inhibition at 50 µM (hMAO-B) [%] | EC (2-fold induction) [1] [µM] | NRF2 (CD, μM) [1] [µM] | ORAC (trolox equiv) [2] [trolox equiv] | Papp at 240 min, 100 μg mL^–1 (in vitro) [×10⁻⁶ cm/s] | PAMPA-BBB (Pe, 10^–6 cm s^–1) (in vitro) | IC50 (QR2) [µM] | inhibition at 10 µM (QR2; read-out: QR2 percentage of inhibition (in brackets)) [%]
1 | N#Cc1cccc(/C=C/c2n[nH]c(=O)o2)c1 [2b, 3-[(E)-2-(5-Oxo-4,5-dihydro-1,3,4-oxadiazol-2-yl)ethenyl]benzonitrile] | > 50 | > 50 | 38 | 13.7 | 13.7 ± 2.2 | <0.1 | > 4 | 4.5 ± 0.3 10^–6 cm s^–1 |  | 
2 | COc1ccc(/C=C/c2n[nH]c(=O)o2)cc1 [2e, 5-[(E)-2-(4-Methoxyphenyl)ethenyl]-1,3,4-oxadiazol-2(3H)-one] | > 50 | > 50 | 42 | > 60 |  | <0.1 | > 4 | 6.5 ± 0.5 10^–6 cm s^–1 | ~10 | 68
3 | COc1ccc(/C=C/c2n[nH]c(=O)o2)c(OC)c1 [2f, 5-[(E)-2-(2,4-Dimethoxyphenyl)ethenyl]-1,3,4-oxadiazol-2(3H)-one] | > 50 | > 50 |  |  |  | 0.6 ± 0.08 | 2 to 4 | 3.6 ± 0.2 10^–6 cm s^–1 |  | 
4 | COc1ccc(OC)c(/C=C/c2n[nH]c(=O)o2)c1 [2g, 5-[(E)-2-(2,5-Dimethoxyphenyl)ethenyl]-1,3,4-oxadiazol-2(3H)-one] | > 50 | > 50 |  |  |  | <0.1 | 2 to 4 | 3.0 ± 0.2 10^–6 cm s^–1 |  | 
5 | COc1ccc(/C=C/c2n[nH]c(=O)o2)cc1OC [2h, 5-[(E)-2-(3,4-Dimethoxyphenyl)ethenyl]-1,3,4-oxadiazol-2(3H)-one] | > 50 | > 50 |  | > 60 |  | <0.1 | 2 to 4 | 2.4 ± 0.3 10^–6 cm s^–1 |  | 
6 | O=c1[nH]nc(/C=C/c2ccc3c(c2)OCO3)o1 [2i, 5-[(E)-2-(2H-1,3-Benzodioxol-5-yl)ethenyl]-1,3,4-oxadiazol-2(3H)-one] | > 50 | 27.6 ± 0.9 |  |  |  | <0.1 | 2 to 4 | 3.8 ± 0.2 10^–6 cm s^–1 |  | 
7 | COc1cc(/C=C/c2n[nH]c(=O)o2)cc(OC)c1 [2j, 5-[(E)-2-(3,5-Dimethoxyphenyl)ethenyl]-1,3,4-oxadiazol-2(3H)-one] | > 50 | > 50 |  |  |  | <0.1 | 2 to 4 | 2.1 ± 0.2 10^–6 cm s^–1 | 0.51 ± 0.05 | 
8 | COc1cc(/C=C/c2n[nH]c(=O)o2)cc(OC)c1OC [2k, 5-[(E)-2-(3,4,5-Trimethoxyphenyl)ethenyl]-1,3,4-oxadiazol-2(3H)-one] | > 50 | > 50 |  |  |  | <0.1 | < 2 | ≤ 0.5 10^–6 cm s^–1 |  | 
9 | O=c1[nH]nc(/C=C/c2ccc(O)c(O)c2)o1 [3o, 5-[(E)-2-(3,4-Dihydroxyphenyl)ethenyl]-1,3,4-oxadiazol-2(3H)-one] | 3.4 ± 0.2 | 5.8 ± 0.4 |  |  | 21.3 ± 1.6 | 1.7 ± 0.1 | < 2 | ≤ 0.2 10^–6 cm s^–1 |  | 
